Results published in patent US20070066801A1 (priority 2003, published 2007).

Key:
F. novicida [1] = type: binding, Francisella novicida
F. tularensis LVS [2] = type: binding, Francisella tularensis
F. novicida [3] = type: binding, Francisella novicida; remark: listed apart in the source
F. philomiragia [4] = type: binding, Francisella philomiragia
E. coli DH5α = type: binding
[5] = test system: Staphylococcus aureus (ATCC 6538); type: binding
[6] = test system: Enterococcus hirae (ATCC 8043); type: binding
F. tularensis LVS [7] = type: binding, Francisella tularensis; remark: listed apart in the source
F. philomiragia [8] = type: binding, Francisella philomiragia; remark: listed apart in the source

Sequence	effect of added peptide on binding of phage 4-4-2 to F. novicida (F. novicida [1])	ratio of phage binding to F. tularensis LVS compared to F. philomiragia (F. tularensis LVS [2])	phage binding to F. tularensis LVS in 0.1×PBS (F. tularensis LVS [2])	phage binding to F. novicida in 0.1×PBS (F. novicida [3])	ratio of phage binding to F. novicida compared to F. philomiragia (F. novicida [3])	phage binding to F. philomiragia in 0.1×PBS (F. philomiragia [4])	effect of trypsin digestion of the bacterial surface on phage binding to F. tularensis LVS (F. tularensis LVS [7])	effect of trypsin digestion of the bacterial surface on phage binding to F. philomiragia (F. philomiragia [8])	other results
SLFWTIPIPSFR [p442S, reference compound]	did not inhibit the binding of phage 4-4-2								
LPISNPLPIKRS [SEQ ID NO: 3]		no specific binding							
TSITPWFFLSRP [p442]	decreased binding of phage 4-4-2								
TSITPWFFLSRP [phage 4-4-2]		> 100 fold	Neither phage expressing peptides having the sequence of SEQ ID NO: 2 (phage 4-4-2) or SEQ ID NO: 4 (OV1 negative control) bound	Neither phage expressing peptides having the sequence of SEQ ID NO: 2 (phage 4-4-2) or SEQ ID NO: 4 (OV1 negative control) bound	> 100 fold	Neither phage expressing peptides having the sequence of SEQ ID NO: 2 (phage 4-4-2) or SEQ ID NO: 4 (OV1 negative control) bound	distinct trypsin sensitivity	small but reproducible increase in binding	binding specificity of phage in Tris-Mg buffer (F. tularensis LVS [2]): showed specificity for the identification of F. tularensis LVS; effect of growth on TSB (versus Chamberlain minimal medium) on phage binding to F. tularensis LVS (F. tularensis LVS [2]): stimulatory effect observed with F. tularensis LVS was not as great; number of phage binding F. tularensis LVS in 1×PBS buffer (versus Tris-Mg) (F. tularensis LVS [2]): not decreased significantly; amount of phage binding to F. novicida in 1×PBS buffer (versus Tris-Mg) (F. novicida [3]): increased; effect of growth on TSB (versus Chamberlain minimal medium) on phage binding to F. novicida (F. novicida [3]): stimulated binding; level of binding to E. coli, fold lower than phage binding to F. novicida and F. tularensis LVS (E. coli DH5α): 20-100 fold; level of binding to S. aureus, fold lower than phage binding to F. novicida and F. tularensis LVS [5]: 20-100 fold; level of binding to E. hirae, fold lower than phage binding to F. novicida and F. tularensis LVS [6]: 20-100 fold; phage binding to F. tularensis LVS after trypsin digestion, relative to no trypsin (F. tularensis LVS [7]): 10-20%
TGRHTPWPHFMP [OV1, reference compound]		approximately equal binding	Neither phage expressing peptides having the sequence of SEQ ID NO: 2 (phage 4-4-2) or SEQ ID NO: 4 (OV1 negative control) bound	Neither phage expressing peptides having the sequence of SEQ ID NO: 2 (phage 4-4-2) or SEQ ID NO: 4 (OV1 negative control) bound	approximately equal binding	Neither phage expressing peptides having the sequence of SEQ ID NO: 2 (phage 4-4-2) or SEQ ID NO: 4 (OV1 negative control) bound	increase in binding after trypsin treatment	increase in binding after trypsin treatment	phage binding to F. novicida in Tris-Mg buffer (F. novicida [3]): equal to or greater than the binding of phage 4-4-2; phage binding to F. philomiragia in 1×PBS buffer (F. philomiragia [4]): equal to the binding of phage 4-4-2; phage binding to F. philomiragia in Tris-Mg buffer (F. philomiragia [4]): equal to or greater than the binding of phage 4-4-2
